Legend:
Format in all cases: in vivo
[1] = tested on: cotton (Gossypium hirsutum, GOSHI); assay: Greenhouse selectivity trial, post-emergence, cotton; settings: 8 DAA
Description: (§1) The respective (combinations of) materials were applied to weed plants in the greenhouse or in the field at the respective growth stage indicated hereinafter for the different weed species mentioned below. The respective (combinations of) active ingredients were also applied to corn, cotton and soybean crop plants, and the selectivity (damage) in these crop plants rated (assessed).
(§2) Visual scoring of the damage to the trial plants took place after the time mentioned in the respective Table—indicated in number of Days After Application (DAA). Damage and development of all above-ground parts of the respective plants was recorded. Visual rating was done on a percentage scale in relation to the untreated control (100%=all plants dead; 50%=green plant biomass reduced by 50%, and 0%=no discernible difference=like control plot).
(§3) The trials in the greenhouse were sprayed with an application volume of 300 L/ha with an automated track sprayer. The plots in the field were sprayed with an application volume of 140 L/ha with a hand held spray boom.
(§4) In greenhouse selectivity trials and trials herbicidal activity trials against weed plants were investigated in post-emergence application of the respective material(s).
Phenmedipham was applied at varying application rates (Dose Rate) to the crop plants of corn (Zea mays subsp. amylacea, ZEAMA), soybean (Glycine max, GLXMA) and cotton (Gossypium hirsutum, GOSHI) at a BBCH growth stage of the plants of BBCH 13 and the crop safety (crop injury, damage) assessed. The results are shown in Table 1 as the % damage when assessed 8 days after application (8 DAA).
In all the selectivity trials of Table 1 the adjuvant Mero® (rapeseed oil methyl ester) was added to the respective spray mixture in an amount corresponding to 1 L/ha.

STEME=Stellaria media = assay: Greenhouse weed control trial STEME; settings: 25 DAA
Description: as §1, §2, §3, §4
(§5) Herbicidal activity against different weeds (undesired plants) was calculated as follows.
(§6) wherein • A, B=respective value in percent of active ingredient A at a dose rate of a g/ha, ingredient B at a dose rate of b g/ha • E^C=Expected value according to Colby (S. R. Colby; Weeds 15 (1967), 20-22) in % at a dose rate of a+b, each in g/ha • Δ=Difference (in %) between measured value E and expected value E^C (%) (measured value minus expected value)
(§7) • measured value E is greater than E^C:->synergism (+Δ) • measured value E is equal to E^C:->additive effect • measured value E is smaller than E^C:->antagonism (−Δ)
(§8) The weed control activity of different (combinations of) materials was investigated in greenhouse trials for the following weed species: • STEME=Stellaria media • ECHCG=Echinochloa crus-galli • BROTE=Bromus tectorum
(§9) Phenmedipham amd Mesotrione were applied at varying application rates (Dose Rate) to the weed plant species STEME, ECHCG and BROTE. The results are shown in Tables 2a to 2c as the % control when assessed 25 days after application (25 DAA).
(§10) In all the trials of Table Tables 2a to 2c Mero® (rapeseed oil methyl ester) was added to the respective spray mixture in an amount corresponding to 1 L/ha for PMP, 1 L/ha for MST, and 2 L/ha for mixtures of PMP+MST.

[2] = tested on: ECHCG=Echinochloa crus-galli; assay: Greenhouse weed control trial ECHCG; settings: 25 DAA
Description: as §1, §2, §3, §4, §5, §6, §7, §8, §9, §10

AMAVI=Amaranthus viridis = assay: Weed control field trial AMAVI
Description: as §1, §2, §3, §6
(§11) The growth stages of the different weed species are indicated according to the BBCH monograph “Growth stages of mono- and dicotyledonous plants”, 2nd edition, 2001, ed. Uwe Meier, Federal Biological Research Centre for Agriculture and Forestry (Biologische Bundesanstalt für Land und Forstwirtschaft).
(§12) After the harmful plants had emerged, they were treated, at the respective growth stage indicated, with the respective materials as indicated at a water application rate of 140 L/ha.
(§13) After the treatment (21 or 35 days after application of the respective material), the herbicidal activity of respective material was scored visually at the same time by comparing the differently treated plots with the untreated control plots. The score figures of the different plots were averaged.
(§14) The dose rates of herbicidal ingredients used in each case are indicated for the respective active ingredient and refer to the amount of active ingredient per hectare (g/ha).
(§15) The weed control activity of different (combinations of) herbicidal active ingredients was investigated in field trials for the following weed species: • AMAVI=Amaranthus viridis • IPOAO=Ipomoea aristolochiaefolia • EPHHL=Euphorbia heterophylla • BIDPI=Bidens pilosa • BRADC=Brachiaria decumbens • ELEIN=Eleusine indica • CCHEC=Cenchrus echinatus
(§16) The growth stage of AMAVI was BBCH 13, the growth stage of IPOAO was BBCH 15, the growth stage of EPHHL was BBCH 13, the growth stage of BIDPI was BBCH 14, the growth stage of BRADC was BBCH 23, the growth stage of ELEIN was BBCH 11 and the growth stage of CCHEC was BBCH 12 at the time of application of the respective material.
(§17) Phenmedipham and Mesotrione were applied at varying application rates (Dose Rate) to the different species of weed plants. The results are shown in Tables 3a to 3e as the % control when assessed 21 and 35 days after application (DAA), respectively.
(§18) In all the trials of Tables 3a to 3e Mero® (rapeseed oil methyl ester) was added to the respective spray mixture in an amount corresponding to 1 L/ha for PMP, 1 L/ha for MST, and 2 L/ha for mixtures of PMP+MST.

[3] = tested on: EPHHL=Euphorbia heterophylla; assay: Weed control field trial EPHHL
Description: as §1, §2, §3, §6, §11, §12, §13, §14, §15, §16, §17, §18

BIDPI=Bidens pilosa = assay: Weed control field trial BIDPI
Description: as §1, §2, §3, §6, §11, §12, §13, §14, §15, §16, §17, §18

CCHEC=Cenchrus echinatus = assay: Weed control field trial CCHEC
Description: as §1, §2, §3, §6, §11, §12, §13, §14, §15, §16, §17, §18

COC(=O)Nc1cccc(OC(=O)Nc2cccc(C)c2)c1 [PMP, 3-[(methoxyformyl)amino]phenyl (3-methylphenyl)carbamate]
3%: % damage GOSHI (cotton) ([1]; 75 g/ha)
14%: % damage GOSHI (cotton) ([1]; 300 g/ha)
6%: % damage GOSHI (cotton) ([1]; 125 g/ha) | % damage GOSHI (cotton) ([1]; 200 g/ha)
25%: % control STEME (STEME=Stellaria media; 125 g/ha)
77%: % control STEME (STEME=Stellaria media; 300 g/ha)
0%: % damage GOSHI (cotton) ([1]; 12.5 g/ha) | % damage GOSHI (cotton) ([1]; 25 g/ha) | % control STEME (STEME=Stellaria media; 12.5 g/ha) | % control STEME (STEME=Stellaria media; 25 g/ha) | % control STEME (STEME=Stellaria media; 50 g/ha) | % control STEME (STEME=Stellaria media; 75 g/ha) | % control STEME (STEME=Stellaria media; 100 g/ha) | % control ECHCG ([2]; 12.5 g/ha) | % control ECHCG ([2]; 25 g/ha) | % control ECHCG ([2]; 50 g/ha) | % control ECHCG ([2]; 75 g/ha) | % control ECHCG ([2]; 100 g/ha) | % control ECHCG ([2]; 125 g/ha) | % control AMAVI (AMAVI=Amaranthus viridis; 75 g/ha, 21 DAA) | % control AMAVI (AMAVI=Amaranthus viridis; 75 g/ha, 35 DAA) | % control AMAVI (AMAVI=Amaranthus viridis; 100 g/ha, 21 DAA) | % control AMAVI (AMAVI=Amaranthus viridis; 100 g/ha, 35 DAA) | % control AMAVI (AMAVI=Amaranthus viridis; 125 g/ha, 21 DAA) | % control AMAVI (AMAVI=Amaranthus viridis; 125 g/ha, 35 DAA) | % control AMAVI (AMAVI=Amaranthus viridis; 250 g/ha, 21 DAA) | % control AMAVI (AMAVI=Amaranthus viridis; 250 g/ha, 35 DAA) | % control EPHHL ([3]; 75 g/ha, 21 DAA) | % control EPHHL ([3]; 75 g/ha, 35 DAA) | % control EPHHL ([3]; 100 g/ha, 21 DAA) | % control EPHHL ([3]; 100 g/ha, 35 DAA) | % control EPHHL ([3]; 125 g/ha, 21 DAA) | % control EPHHL ([3]; 125 g/ha, 35 DAA) | % control EPHHL ([3]; 250 g/ha, 21 DAA) | % control EPHHL ([3]; 250 g/ha, 35 DAA) | % control BIDPI (BIDPI=Bidens pilosa; 75 g/ha, 21 DAA) | % control BIDPI (BIDPI=Bidens pilosa; 75 g/ha, 35 DAA) | % control BIDPI (BIDPI=Bidens pilosa; 100 g/ha, 21 DAA) | % control BIDPI (BIDPI=Bidens pilosa; 100 g/ha, 35 DAA) | % control BIDPI (BIDPI=Bidens pilosa; 125 g/ha, 21 DAA) | % control BIDPI (BIDPI=Bidens pilosa; 125 g/ha, 35 DAA) | % control BIDPI (BIDPI=Bidens pilosa; 250 g/ha, 21 DAA) | % control BIDPI (BIDPI=Bidens pilosa; 250 g/ha, 35 DAA) | % control CCHEC (CCHEC=Cenchrus echinatus; 75 g/ha, 21 DAA) | % control CCHEC (CCHEC=Cenchrus echinatus; 75 g/ha, 35 DAA) | % control CCHEC (CCHEC=Cenchrus echinatus; 100 g/ha, 21 DAA) | % control CCHEC (CCHEC=Cenchrus echinatus; 100 g/ha, 35 DAA) | % control CCHEC (CCHEC=Cenchrus echinatus; 125 g/ha, 21 DAA) | % control CCHEC (CCHEC=Cenchrus echinatus; 125 g/ha, 35 DAA) | % control CCHEC (CCHEC=Cenchrus echinatus; 250 g/ha, 21 DAA) | % control CCHEC (CCHEC=Cenchrus echinatus; 250 g/ha, 35 DAA)
10%: % control ECHCG ([2]; 300 g/ha)

CS(=O)(=O)c1ccc(C(=O)C2C(=O)CCCC2=O)c([N+](=O)[O-])c1 [MST, 2-[4-(methylsulfonyl)-2-nitrobenzoyl]cyclohexane-1,3-dione]
99%: % control STEME (STEME=Stellaria media; 25 g/ha) | % control STEME (STEME=Stellaria media; 50 g/ha) | % control STEME (STEME=Stellaria media; 75 g/ha)
80%: % control BIDPI (BIDPI=Bidens pilosa; 25 g/ha, 21 DAA) | % control BIDPI (BIDPI=Bidens pilosa; 25 g/ha, 35 DAA) | % control BIDPI (BIDPI=Bidens pilosa; 50 g/ha, 21 DAA) | % control BIDPI (BIDPI=Bidens pilosa; 50 g/ha, 35 DAA)
17%: % control EPHHL ([3]; 50 g/ha, 21 DAA) | % control CCHEC (CCHEC=Cenchrus echinatus; 50 g/ha, 21 DAA)
0%: % control EPHHL ([3]; 25 g/ha, 21 DAA) | % control EPHHL ([3]; 25 g/ha, 35 DAA) | % control EPHHL ([3]; 50 g/ha, 35 DAA) | % control CCHEC (CCHEC=Cenchrus echinatus; 25 g/ha, 35 DAA) | % control CCHEC (CCHEC=Cenchrus echinatus; 50 g/ha, 35 DAA)
28%: % control ECHCG ([2]; 25 g/ha)
15%: % control ECHCG ([2]; 12.5 g/ha)
10%: % control AMAVI (AMAVI=Amaranthus viridis; 25 g/ha, 21 DAA) | % control AMAVI (AMAVI=Amaranthus viridis; 25 g/ha, 35 DAA) | % control AMAVI (AMAVI=Amaranthus viridis; 50 g/ha, 21 DAA) | % control AMAVI (AMAVI=Amaranthus viridis; 50 g/ha, 35 DAA)
70%: % control ECHCG ([2]; 50 g/ha) | % control ECHCG ([2]; 75 g/ha)
89%: % control STEME (STEME=Stellaria media; 12.5 g/ha)

— patent US20250040554A1, “NEW USES OF PHENMEDIPHAM AND HERBICIDAL COMBINATIONS COMPRISING PHENMEDIPHAM” (BAYER AKTIENGESELLSCHAFT, priority 2021, published 2025)
